Patent US20240150303A1, “DIAMINOTRIAZINE COMPOUNDS” (BASF SE, priority 2021, published 2024)
Values joined by “and” are separate entries in the source; they are usually repeats but may differ in a detail not shown here. Equal values may be shown once.

What was measured:
Assay in all cases: greenhouse pre-emergence herbicidal test
Type in all cases: in vivo
Amaranthus retroflexus = test system: Amaranthus retroflexus
Source text: (§1) The seeds of the test plants were sown separately for each species. For the pre-emergence treatment, the active ingredients, which had been suspended or emulsified in water, were applied directly after sowing by means of finely distributing nozzles. The containers were irrigated gently to promote germination and growth and subsequently covered with transparent plastic hoods until the plants had rooted. This cover caused uniform germination of the test plants, unless this had been impaired by the active ingredients. […] The test period extended over 2 to 4 weeks. During this time, the plants were tended, and their response to the individual treatments was evaluated. Evaluation was carried out using a scale from 0 to 100. 100 means no emergence of the plants, or complete destruction of at least the aerial moieties, and 0 means no damage, or normal course of growth. A moderate herbicidal activity is given at values of at least 60, a good herbicidal activity is given at values of at least 70, and a very good herbicidal activity is given at values of at least 85. The plants used in the greenhouse experiments were of the following species: [table]

Echinocloa crus-galli = test system: Echinocloa crus-galli
Source text: as §1

Setaria faberi = test system: Setaria faberi
Source text: as §1

Abutilon theophrasti = test system: Abutilon theophrasti
Source text: (§2) The culture containers used were plastic flowerpots containing loamy sand with approximately 3.0% of humus as the substrate. The seeds of the test plants were sown separately for each species.
(§3) For the pre-emergence treatment, the active ingredients, which had been suspended or emulsified in water, were applied directly after sowing by means of finely distributing nozzles.
(§4) The containers were irrigated gently to promote germination and growth and subsequently covered with transparent plastic hoods until the plants had rooted. This cover caused uniform germination of the test plants, unless this had been impaired by the active ingredients.
(§5) Depending on the species, the plants were kept at 10-25° C. or 20-35° C., respectively.
(§6) The test period extended over 2 to 4 weeks. During this time, the plants were tended, and their response to the individual treatments was evaluated.
(§7) Evaluation was carried out using a scale from 0 to 100. 100 means no emergence of the plants, or complete destruction of at least the aerial moieties, and 0 means no damage, or normal course of growth. A moderate herbicidal activity is given at values of at least 60, a good herbicidal activity is given at values of at least 70, and a very good herbicidal activity is given at values of at least 85.
(§8) The plants used in the greenhouse experiments were of the following species: […]

Digitaria sanguinalis = test system: Digitaria sanguinalis
Source text: as §2, §3, §4, §5, §6, §7, §8

Apera spica-venti = test system: Apera spica-venti
Source text: as §2, §3, §4, §5, §6, §7, §8

Alopercurus myosuroides = test system: Alopercurus myosuroides
Source text: as §2, §3, §4, §5, §6, §7, §8

Lolium multiflorum = test system: Lolium multiflorum
Source text: as §2, §3, §4, §5, §6, §7, §8

Structure (SMILES): COc1c(Br)ccc(Cl)c1Nc1nc(N)nc(C(C)(C)F)n1 [Example 4]
- herbicidal activity (Amaranthus retroflexus; 250 g/ha): 100%
- herbicidal activity (Echinocloa crus-galli; 62.5 g/ha): 100%
- herbicidal activity (Echinocloa crus-galli; 250 g/ha): 100%
- herbicidal activity (Setaria faberi; 250 g/ha): 100%
- herbicidal activity (Abutilon theophrasti; 62.5 g/ha): 100%
- herbicidal activity (Digitaria sanguinalis; 62.5 g/ha): 100%

Structure (SMILES): COc1c(Cl)cc(Cl)c(C)c1Nc1nc(N)nc(C(C)(C)OC)n1 [Example 37]
- herbicidal activity (Amaranthus retroflexus; 62.5 g/ha): 100%
- herbicidal activity (Echinocloa crus-galli; 62.5 g/ha): 100%
- herbicidal activity (Setaria faberi; 125 g/ha): 85%
- herbicidal activity (Abutilon theophrasti; 62.5 g/ha): 98%
- herbicidal activity (Abutilon theophrasti; 125 g/ha): 85%
- herbicidal activity (Apera spica-venti; 125 g/ha): 100%

Structure (SMILES): COc1c(Cl)cc(F)c(Br)c1Nc1nc(N)nc(C(C)(C)F)n1 [Example 11]
- herbicidal activity (Amaranthus retroflexus; 32 g/ha): 100%
- herbicidal activity (Echinocloa crus-galli; 250 g/ha): 100%
- herbicidal activity (Setaria faberi; 250 g/ha): 100%
- herbicidal activity (Abutilon theophrasti; 32 g/ha): 100%
- herbicidal activity (Alopercurus myosuroides; 250 g/ha): 100%
- herbicidal activity (Digitaria sanguinalis; 32 g/ha): 100%

Structure (SMILES): CCC(C)(F)c1nc(N)nc(Nc2c(C)c(Cl)cc(Cl)c2OC)n1 (racemic) [Example 102]
- herbicidal activity (Setaria faberi; 62.5 g/ha): 80%
- herbicidal activity (Alopercurus myosuroides; 62.5 g/ha): 85%
- herbicidal activity (Lolium multiflorum; 62.5 g/ha): 90%

Structure (SMILES): COc1c(Cl)cc(Cl)c(C)c1Nc1nc(N)nc(C2(F)CCCC2)n1 [Example 36]
- herbicidal activity (Amaranthus retroflexus; 62.5 g/ha): 100%
- herbicidal activity (Echinocloa crus-galli; 62.5 g/ha): 100%
- herbicidal activity (Echinocloa crus-galli; 125 g/ha): 85%
- herbicidal activity (Setaria faberi; 125 g/ha): 90%
- herbicidal activity (Abutilon theophrasti; 62.5 g/ha): 100%
- herbicidal activity (Apera spica-venti; 125 g/ha): 100%

Structure (SMILES): COc1c(Cl)cc(Cl)c(C)c1Nc1nc(N)nc(C(C)(F)CCl)n1 (racemic) [Example 104]
- herbicidal activity (Setaria faberi; 62.5 g/ha): 85%
- herbicidal activity (Alopercurus myosuroides; 62.5 g/ha): 90%
- herbicidal activity (Lolium multiflorum; 62.5 g/ha): 100%

Structure (SMILES): COc1c(F)ccc(Br)c1Nc1nc(N)nc(C(C)(C)F)n1 [Example 3, N4-(6-bromo-3-fluoro-2-methoxy-phenyl)-6-(1-fluoro-1-methyl-ethyl)-1,3,5-triazine-2,4-diamine]
- herbicidal activity (Amaranthus retroflexus; 250 g/ha): 100%
- herbicidal activity (Echinocloa crus-galli; 62.5 g/ha): 100%
- herbicidal activity (Setaria faberi; 250 g/ha): 100%
- herbicidal activity (Abutilon theophrasti; 62.5 g/ha): 100%
- herbicidal activity (Abutilon theophrasti; 250 g/ha): 100%
- herbicidal activity (Digitaria sanguinalis; 62.5 g/ha): 100%

Structure (SMILES): COc1c(F)cc(Br)c(C)c1Nc1nc(N)nc(C(C)(C)F)n1 [Example 5]
- herbicidal activity (Amaranthus retroflexus; 250 g/ha): 100%
- herbicidal activity (Echinocloa crus-galli; 250 g/ha): 100% and 85%
- herbicidal activity (Setaria faberi; 250 g/ha): 100%
- herbicidal activity (Abutilon theophrasti; 250 g/ha): 90%
- herbicidal activity (Digitaria sanguinalis; 250 g/ha): 100%

Structure (SMILES): COc1c(Cl)cc(F)c(Cl)c1Nc1nc(N)nc(C(C)(C)F)n1 [Example 10]
- herbicidal activity (Amaranthus retroflexus; 32 g/ha): 100%
- herbicidal activity (Amaranthus retroflexus; 250 g/ha): 100%
- herbicidal activity (Setaria faberi; 250 g/ha): 100%
- herbicidal activity (Abutilon theophrasti; 32 g/ha): 100%
- herbicidal activity (Abutilon theophrasti; 250 g/ha): 100%
- herbicidal activity (Digitaria sanguinalis; 32 g/ha): 100%

Structure (SMILES): COc1c(Cl)cc(Br)c(C)c1Nc1nc(N)nc(C(C)(C)F)n1 [Example 60]
- herbicidal activity (Amaranthus retroflexus; 31 g/ha): 100%
- herbicidal activity (Amaranthus retroflexus; 62 g/ha): 100%
- herbicidal activity (Setaria faberi; 31 g/ha): 98%
- herbicidal activity (Setaria faberi; 62 g/ha): 100%
- herbicidal activity (Abutilon theophrasti; 62 g/ha): 100%
- herbicidal activity (Apera spica-venti; 31 g/ha): 95%

Structure (SMILES): CC(C)(F)c1nc(N)nc(Nc2c(Cl)ccc(F)c2OCC#CC2CC2)n1 [Example 52]
- herbicidal activity (Amaranthus retroflexus; 62 g/ha): 100%
- herbicidal activity (Echinocloa crus-galli; 62 g/ha): 100%
- herbicidal activity (Echinocloa crus-galli; 62.5 g/ha): 100%
- herbicidal activity (Setaria faberi; 62.5 g/ha): 100%
- herbicidal activity (Abutilon theophrasti; 62 g/ha): 100%
- herbicidal activity (Apera spica-venti; 62.5 g/ha): 100%

Structure (SMILES): COc1c(F)cc(F)c(C)c1Nc1nc(N)nc(C(C)(C)F)n1 [Example 8]
- herbicidal activity (Amaranthus retroflexus; 32 g/ha): 100%
- herbicidal activity (Echinocloa crus-galli; 125 g/ha): 100%
- herbicidal activity (Setaria faberi; 125 g/ha): 100%
- herbicidal activity (Abutilon theophrasti; 32 g/ha): 100%
- herbicidal activity (Abutilon theophrasti; 125 g/ha): 100%
- herbicidal activity (Digitaria sanguinalis; 32 g/ha): 100%

Structure (SMILES): COc1c(Br)cc(C)c(C)c1Nc1nc(N)nc(C2(F)CCCC2)n1 [Example 47]
- herbicidal activity (Amaranthus retroflexus; 62.5 g/ha): 100%
- herbicidal activity (Echinocloa crus-galli; 62.5 g/ha): 100%
- herbicidal activity (Setaria faberi; 62 g/ha): 90%
- herbicidal activity (Setaria faberi; 62.5 g/ha): 100%
- herbicidal activity (Lolium multiflorum; 62 g/ha): 80%

Structure (SMILES): CCOc1c(F)cc(F)c(Cl)c1Nc1nc(N)nc(C(C)(C)F)n1 [Example 24]
- herbicidal activity (Amaranthus retroflexus; 31 g/ha): 100%
- herbicidal activity (Amaranthus retroflexus; 62.5 g/ha): 100%
- herbicidal activity (Echinocloa crus-galli; 62.5 g/ha): 100%
- herbicidal activity (Setaria faberi; 62.5 g/ha): 100%
- herbicidal activity (Apera spica-venti; 31 g/ha): 100%

Structure (SMILES): COc1c(Br)cc(C)c(C)c1Nc1nc(N)nc(C(C)(C)F)n1 [Example 45]
- herbicidal activity (Amaranthus retroflexus; 62.5 g/ha): 100%
- herbicidal activity (Echinocloa crus-galli; 62.5 g/ha): 100%
- herbicidal activity (Setaria faberi; 62 g/ha): 100%
- herbicidal activity (Setaria faberi; 62.5 g/ha): 100%
- herbicidal activity (Abutilon theophrasti; 62 g/ha): 100%
- herbicidal activity (Lolium multiflorum; 62 g/ha): 100%
